{
  "source": "patent US11001557B2",
  "about": "(priority 2017, dated 2021)",
  "key": {"Vero cells": {"test_system": "Vero cells", "settings": "African green monkey"}, "SFTSV [1]": {"test_system": "SFTSV", "experiment": "microbe, parasite or virus in culture", "format": "cell-based, severe fever with thrombocytopenia syndrome virus (SFTSV)", "settings": "for EC50: Severe fever with thrombocytopenia syndrome virus, Vero, 72 h"}, "in vitro": {"experiment": "in vitro", "settings": "African green monkey"}, "SFTSV [2]": {"test_system": "SFTSV", "settings": "cited from earlier work"}, "[3]": {"settings": "read-out: EC50: 50% effective concentration (concentration of a drug suppressing SFTSV proliferation by 50%)"}},
  "note": "Where two headings read alike, the source gives them in different places.",
  "data": [
    {"compound": "CCN(CC)Cc1cc(Nc2ccnc3cc(Cl)ccc23)ccc1O", "note": "[Compound 1, Amodiaquine, reference compound]", "values": [
      {"measurement": "CC50", "setting": "Vero cells", "value": "> 100", "unit": "µM"},
      {"measurement": "anti-SFTSV effect (in words)", "setting": "SFTSV [1]", "value": "have an anti-SFTSV effect"},
      {"measurement": "EC50", "setting": "SFTSV [1]; [3]", "value": "19.1 ± 5.1", "unit": "µM"}
    ]},
    {"compound": "CCN(CC)Cc1cc(Nc2ccnc3cc(F)ccc23)ccc1O", "note": "[Compound 2, 4-(7-fluoroquinolin-4-ylamino)-2-diethylaminomethylphenol]", "values": [
      {"measurement": "CC50", "setting": "Vero cells", "value": "> 100", "unit": "µM"},
      {"measurement": "EC50", "setting": "SFTSV [1]; [3]", "value": "36.6 ± 9.3", "unit": "µM"}
    ]},
    {"compound": "CCN(CC)Cc1cc(Nc2ccnc3cc(Br)ccc23)ccc1O", "note": "[Compound 3, 4-(7-bromoquinolin-4-ylamino)-2-diethylaminomethylphenol]", "values": [
      {"measurement": "CC50", "setting": "Vero cells", "value": "> 100", "unit": "µM"},
      {"measurement": "melting point", "value": "194.3 to 195.8", "unit": "°C"},
      {"measurement": "EC50", "setting": "SFTSV [1]; [3]", "value": "31.1 ± 16.8", "unit": "µM"}
    ]},
    {"compound": "CCN(CC)Cc1cc(Nc2ccnc3cc(I)ccc23)ccc1O", "note": "[Compound 4, 4-(7-iodoquinolin-4-ylamino)-2-diethylaminomethylphenol]", "values": [
      {"measurement": "CC50", "setting": "Vero cells", "value": "> 100", "unit": "µM"},
      {"measurement": "melting point", "value": "189.7 to 190.4", "unit": "°C"},
      {"measurement": "EC50", "setting": "SFTSV [1]; [3]", "value": "15.6 ± 4.9", "unit": "µM"}
    ]},
    {"compound": "Oc1ccc(Nc2ccnc3cc(Cl)ccc23)cc1CN1CCCC1", "note": "[Compound 5, 4-(7-chloroquinolin-4-ylamino)-2-(1-pyrrolidinylmethyl)phenol]", "values": [
      {"measurement": "CC50", "setting": "in vitro", "value": 41.1, "unit": "µM"},
      {"measurement": "EC50", "setting": "SFTSV [1]; [3]", "value": 14.6, "unit": "µM"}
    ]},
    {"compound": "CCCN(CCC)Cc1cc(Nc2ccnc3cc(Cl)ccc23)ccc1O", "note": "[Compound 6, 4-(7-chloroquinolin-4-ylamino)-2-dipropylaminomethylphenol]", "values": [
      {"measurement": "CC50", "setting": "in vitro", "value": "> 100", "unit": "µM"},
      {"measurement": "melting point", "value": "163.2 to 164.3", "unit": "°C"},
      {"measurement": "EC50", "setting": "SFTSV [1]; [3]", "value": 58.7, "unit": "µM"}
    ]},
    {"compound": "CCCCN(C)Cc1cc(Nc2ccnc3cc(I)ccc23)ccc1O", "note": "[Compound 12, 4-(7-iodoquinolin-4-ylamino)-2-butylmethylaminomethylphenol]", "values": [
      {"measurement": "CC50", "setting": "in vitro", "value": "> 50", "unit": "µM"},
      {"measurement": "EC50", "setting": "SFTSV [1]", "value": 6.2, "unit": "µM"}
    ]},
    {"compound": "CCCCCN(C)Cc1cc(Nc2ccnc3cc(I)ccc23)ccc1O", "note": "[Compound 13, 4-(7-iodoquinolin-4-ylamino)-2-methylpentylaminomethylphenol]", "values": [
      {"measurement": "CC50", "setting": "in vitro", "value": "> 50", "unit": "µM"},
      {"measurement": "EC50", "setting": "SFTSV [1]", "value": 3.4, "unit": "µM"}
    ]},
    {"compound": "CCCCCCN(C)Cc1cc(Nc2ccnc3cc(I)ccc23)ccc1O", "note": "[Compound 14, 4-(7-iodoquinolin-4-ylamino)-2-hexylmethylaminomethylphenol]", "values": [
      {"measurement": "CC50", "setting": "in vitro", "value": "> 50", "unit": "µM"},
      {"measurement": "EC50", "setting": "SFTSV [1]", "value": 8.7, "unit": "µM"}
    ]},
    {"compound": "NC(=O)c1nc(F)c[nH]c1=O", "note": "[favipiravir, reference compound]", "values": [
      {"measurement": "anti-SFTSV effect already reported", "setting": "SFTSV [2]", "value": "already reported to have an anti-SFTSV effect"},
      {"measurement": "anti-SFTSV effect (in words)", "setting": "SFTSV [1]", "value": "have an anti-SFTSV effect"}
    ]},
    {"compound": "NC(=O)c1ncn([C@@H]2O[C@H](CO)[C@@H](O)[C@H]2O)n1", "note": "[ribavirin, reference compound]", "values": [
      {"measurement": "anti-SFTSV effect already reported", "setting": "SFTSV [2]", "value": "already reported to have an anti-SFTSV effect"},
      {"measurement": "anti-SFTSV effect (in words)", "setting": "SFTSV [1]", "value": "have an anti-SFTSV effect"}
    ]}
  ]
}
